2 molecules from US20090075921A1, “Bone/joint disease sensitivity gene and use thereof” (Riken, priority 2004, published 2009) can be followed below.

The subject of test [1] is OUMS-27. The experiment in a line: Induction with TGF-β1 of asporin gene expression in OUMS-27. Type of test: cell-based, human. The conditions noted are these: TGF-β1 10 ng/ml, 24 hours. Here is the method:
(§1) In various cartilage lineage cell lines, the potential of TGF-β1 for inducing asporin gene expression was examined by the method described below. OUMS-27 was cultured in a DMEM containing 10% FBS, CS-OKB was cultured in an RPMI1640 containing 10% FBS, and normal human articular chondrocytes of knee joint (NHAC-kn, P7, monolayer, Clonetics) were cultured using Chondrocyte Growth Medium (CGM, Clonetics). ATDC5 was cultured using the medium 1-2 described in Example 13. For the induction experiments in the cartilage lineage cell lines, cells were cultured in the above-described media until they became confluent, after which the medium was exchanged with a medium containing 0.2% FBS, and the cells were cultured for 12 hours; TGF-β1 (10 ng/ml) was added, and the cells were further cultured for 24 hours. RNA extraction, cDNA synthesis, and real-time PCR were performed by the methods described in Example 12.

Test [2] concerns NHAC. As to the kind of experiment: Articular chondrocyte differentiation maintenance in redifferentiated NHAC. Type of test: cell-based, human. The conditions noted are these: 7 days, TGF-β1 40 ng/ml, asporin 20 μg/ml where added. The procedure:
NHAC was redifferentiated by alginate beads culture for 2 weeks using a chondrocyte differentiation medium (CDM) manufactured by Cambrex Company according to the protocol attached. These redifferentiated cells were inoculated to a Lab-Tek II chamber slide (Nunc), a DMEM/F12 containing 5% FBS, ITS (Sigma), and TGF-β1 (40 ng/ml) was added, and the cells were allowed to maintain the degree of differentiation thereof; the effects of addition of asporin (20 μg/ml) on the cell morphology and extracellular proteoglycan accumulation were examined.

In test [3] the test system is NHAC. The experiment in a line: Time course of asporin gene expression by TGF-β1 in NHAC. The class given is cell-based, human. The conditions noted are these: TGF-β1 10 ng/ml. Here is the method: A time course of the expression of the asporin gene by TGF-β1 in NHAC was examined as described below. Cells were inoculated to a 12-well plate at 1×10^5 cells/well, and cultured in a DMEM/F12 containing 10% FBS until they became confluent. The medium was exchanged with a DMEM/F12 containing 0.2% FBS, and the cells were cultured for 24 hours, after which TGF-β1 (10 ng/ml) was added, total RNA was extracted over time, and the expression levels of the asporin and GAPDH genes were examined. As a result, the expression level of the asporin gene maximized when the cells were cultured in the presence of TGF-β1 (10 ng/ml) for 12 hours, and thereafter the expression level decreased over time (FIG. 46).

Test [4] has as its system NHAC-kn. The experiment in a line: Induction with TGF-β1 of asporin gene expression in NHAC-kn. The class given is cell-based, human. The conditions noted are these: TGF-β1 10 ng/ml, 24 hours. Here is the method: as §1
Test [5] relates to ATDC5. As to the kind of experiment: Induction with TGF-β1 of asporin gene expression in ATDC5. Type of test: cell-based, mouse. Conditions: TGF-β1 10 ng/ml, 24 hours. Here is the method: as §1
Test [6] relates to NHAC. The experiment in a line: MTT assay of TGF-β1-stimulated cell growth in NHAC. Type of test: cell-based, human. The conditions noted are these: TGF-β1 40 ng/ml alone, 5 days. Here is the method: NHAC was inculated to a 12-well plate at 1×10^5 cells/well, and cultured in a DMEM/F12 containing 10% FBS supplemented with TGF-β1 (40 ng/ml) and asporin (5 or 20 μg/ml) for 5 days, after which the degree of cell growth was examined by the MTT assay method described below. Specifically, 3-(4,5-dimethyl-2-thiazolyl)-2,5-diphenyl-2H-tetrazolium bromide (MTT, Dojindo Laboratory) was dissolved in DMEM/F12 to obtain a concentration of 1 mg/ml, the solution was added to the cells after the medium was removed by suction, and the cells were cultured at 37° C. for 1 hour. Thereafter the medium containing MTT was discarded, and the cells were subjected to extraction treatment using a Lysis reagent (86% isopropanol, 40 mM hydrochloric acid, 1% SDS). This cell lysate was transferred to a 96-well plate, and the absorbance at 550 nm was measured using a microplate reader.
(Formazan colour is commonly taken as a measure of viable cells.)

For test [7], the system named is ATDC5 cell lines that stably express human asporin. As to the kind of experiment: TGF-βs-stimulated aggrecan and type II collagen gene expression in ATDC5 lines stably expressing human asporin. Conditions: stably expressing lines vs mock, TGF-βs 10 ng/ml, 24 hours. The class given is cell-based, mouse. The procedure:
Plasmid DNAs for allowing ATDC5 cells, a mouse cartilage stem cell line, to stably express human asporin were prepared as described below. First, by the method described below, full-length cDNAs of human asporin D13 and D14 were acquired. Using KOD-plus (Toyobo), according to the method described in the attached protocol, a reaction mixture was prepared. Per 25 μl of the reaction mixture, […] each of a sense strand primer comprising the initiation codon and a restriction enzyme XhoI site, and an antisense strand primer comprising the stop codon of aspotin and a restriction enzyme BamHI site, were used as the primers, and 1 μl (10 ng as total RNA) of a cDNA solution prepared from total RNA extracted from knee articular cartilage from OA patients carrying the D13 allele and the D14 allele of aspartic acid repeat polymorphisms in asporin heterologously was used as the template. […]
The TGF-βs-stimulated expression of the aggrecan and type II collagen genes in ATDC5 cell lines that stably express human asporin was quantified by the method described below. […] For real-time PCR, reactions were performed using QuantiTect SYBR Green PCR Kit (QIAGEN), and detection and quantitation were performed using ABI PRISM 7700. […]

Test [8] relates to ATDC5 cell lines that transiently express human asporin. The experiment in a line: TGF-β1-stimulated aggrecan and type II collagen gene expression in ATDC5 transiently expressing human asporin. The class given is cell-based, mouse. The conditions noted are these: transient expression vs mock, TGF-β1 10 ng/ml, 18 hours. The procedure: ATDC5 cells were inoculated to a 12-well plate at 0.5×10^5 cells/well, and cultured in a medium 1-2 (DMEM/F12 medium containing 5% FBS, ITS (Sigma), penicillin (100 U/ml) and streptomycin (100 μg/ml)). 24 hours later, pcDNA3.1-ASP13 or pcDNA3.1-ASP14 were introduced using FuGENE-6 (Roche), and the cells were cultured for 24 hours. Next, the medium was exchanged with a medium 1-2 containing 0.2% FBS, and the cells were cultured for 12 hours, after which TGF-β1 (10 ng/ml) was added, and the cells were further cultured for 18 hours, after which total RNA extraction, purification, cDNA synthesis, and real-time PCR were performed in the same manner as Example 18. As a result, the elevation of the TGF-β1-stimulated expression levels of the aggrecan and type II collagen genes was suppressed in the ATDC5 cells allowed to transiently express human asporin D13 or D14 compared to mock (FIG. 14).
First, the expression level of the aggrecan gene elevated by TGF-β1 stimulation in mock is written as (AM), and the expression level of the type II collagen gene at the same time is written as (CM). Next, the TGF-β1-stimulated aggrecan gene expression level suppressed by the forced expression of asporin D13 is written as (A13), and the type II collagen gene expression level at the same time is written as (C13). […] Thus, the suppression rate of the TGF-β1-stimulated aggrecan gene expression in the asporin D13 expressing line can be expressed as (A13)/(AM), and the suppression rate of the type II collagen gene expression as (C13)/(CM). Likewise, the suppression rate of the TGF-β1-stimulated aggrecan gene expression in the asporin D14 expressing line can be expressed as (A14)/(AM), and the suppression rate of the type II collagen gene expression as (C14)/(CM). Furthermore, by making a correction by dividing these values by the human asporin mRNA content obtained with TGF-β1 stimulation, the suppression rate of the aggrecan and type II collagen gene expression per human asporin mRNA content were calculated. […]

Test [9] relates to ATDC5 cell lines that stably express human asporin. The experiment in a line: Cartilage differentiation culture of ATDC5 lines stably expressing human asporin. The class given is cell-based, mouse. Conditions: stably expressing lines, 5, 9, 15 or 21 days; mock peaks on Day 9. The procedure:
The ATDC5 cell lines that stably express human asporin prepared in Example 17 were inoculated to a 12-well plate at 0.3×10^5 cells/well, and cultured in a medium 1-1 for 5, 9, 15 or 21 days, after which total RNA extraction, purification, cDNA synthesis, and real-time PCR were performed in the same manner as Example 18.

For test [10] the test system is unchanged. As to the kind of experiment: Alcian Blue staining of extracellular proteoglycan in ATDC5 lines stably expressing human asporin. Type of test: cell-based, mouse. The conditions noted are these: Day 21 of cultivation, absorbance at 630 nm. Here is the method: The ATDC5 cell lines that stably express human asporin prepared in Example 17 were cultured by the method described in Example 20; using the cells on Day 21 after the start of cultivation, Alcian Blue staining was performed as described below. First, the medium was removed by suction, and the cell surface was washed with cold PBS three times, after which methanol fixation was performed at 4° C. for 2 minutes. The methanol was removed by suction, the cells were once rinsed with distilled water, and then stained using 0.1% Alcian Blue 8GX (Sigma)/3% acetic acid solution at 4° C. for 2 days. The staining solution was removed, the cells were washed with distilled water three times, and then examined under microscope and photographed. Thereafter, the cells were treated with aqueous solution of 6 M guanidine hydrochloride to extract the stained proteoglycan, after which the absorbance at 630 nm was measured.

Turning to “TGF-β1: TGF-β isoform, regulatory factor of cartilage differentiation used as stimulus”, the “expression of the asporin gene with TGF-β1 stimulation” value in [1] and in [4] was “significant increases” in each case. Also, the “Safranine-O stainability (extracellular proteoglycan)” value in [2] is listed as “positive”. Also, the cell morphology result in test [2] is listed as “egg-like morphology”. In test [3], the “culture time at which the expression level of the asporin gene maximized” value was 12 h. Moreover, the “expression level of asporin after 3 days in the presence of TGF-β1” value in test [3] (vs control) was “smaller than that without induction”. The “expression of asporin with TGF-β1 stimulation” value in test [5] is given as “tended to be slightly suppressed”. Moreover, the “cell growth of NHAC (MTT, absorbance at 550 nm)” value in test [6] is given as “increased”.

B1: human asporin D13: human asporin with 13 aspartic acid repeats, expressed from pcDNA3.1-ASP13 (SEQ ID NO:4) (protein, UniProt Q9BXN1 33-380, looked up)
Asporin: DMEDTDDDDDDDDDDDDDDEDNSLFPTREPRSHFFPFDLFPMCPFGCQCYSRVVHCSDLGLTSVPTNIPFDTRMLDLQNNKIKEIKENDFKGLTSLYGLILNNNKLTKIHPKAFLTTKKLRRLYLSHNQLSEIPLNLPKSLAELRIHENKVKKIQKDTFKGMNALHVLEMSANPLDNNGIEPGAFEGVTVFHIRIAEAKLTSVPKGLPPTLLELHLDYNKISTVELEDFKRYKELQRLGLGNNKITDIENGSLANIPRVREIHLENNKLKKIPSGLPELKYLQIIFLHSNSIARVGVNDFCPTVPKMKKSLYSAISLFNNPVKYWEMQPATFRCVLSRMSVQLGNFGM
With B1, the “elevation of the TGF-β1-stimulated expression levels of the aggrecan and type II collagen genes” value in [7] is “suppressed compared to mock”; in test [8] it was “suppressed”. Further, in [9], the “expression of the aggrecan and type II collagen genes during cartilage differentiation culture” value was “did not rise”. The “intensity of staining with Alcian Blue (extracellular proteoglycan)” value in test [10] is “mock>D13>D14”.
